From ChEMBL document CHEMBL1201862, “PubChem BioAssay data set” (2004)
Active and inactive are the calls of the source. Rule as the data show it: actives have a measured IC50 and inactives only a lower limit.

Molecular target: Envelope glycoprotein gp160 (Human immunodeficiency virus 1, UniProt Q6QLK5)
Experiment: inhibitors of HIV fusion peptide binding, primary screen, biochemical, uHTS, fluorescence dequenching (AID 1986)

Envelope glycoprotein gp160, sequence (Q6QLK5 whole entry, the tested form may be a part): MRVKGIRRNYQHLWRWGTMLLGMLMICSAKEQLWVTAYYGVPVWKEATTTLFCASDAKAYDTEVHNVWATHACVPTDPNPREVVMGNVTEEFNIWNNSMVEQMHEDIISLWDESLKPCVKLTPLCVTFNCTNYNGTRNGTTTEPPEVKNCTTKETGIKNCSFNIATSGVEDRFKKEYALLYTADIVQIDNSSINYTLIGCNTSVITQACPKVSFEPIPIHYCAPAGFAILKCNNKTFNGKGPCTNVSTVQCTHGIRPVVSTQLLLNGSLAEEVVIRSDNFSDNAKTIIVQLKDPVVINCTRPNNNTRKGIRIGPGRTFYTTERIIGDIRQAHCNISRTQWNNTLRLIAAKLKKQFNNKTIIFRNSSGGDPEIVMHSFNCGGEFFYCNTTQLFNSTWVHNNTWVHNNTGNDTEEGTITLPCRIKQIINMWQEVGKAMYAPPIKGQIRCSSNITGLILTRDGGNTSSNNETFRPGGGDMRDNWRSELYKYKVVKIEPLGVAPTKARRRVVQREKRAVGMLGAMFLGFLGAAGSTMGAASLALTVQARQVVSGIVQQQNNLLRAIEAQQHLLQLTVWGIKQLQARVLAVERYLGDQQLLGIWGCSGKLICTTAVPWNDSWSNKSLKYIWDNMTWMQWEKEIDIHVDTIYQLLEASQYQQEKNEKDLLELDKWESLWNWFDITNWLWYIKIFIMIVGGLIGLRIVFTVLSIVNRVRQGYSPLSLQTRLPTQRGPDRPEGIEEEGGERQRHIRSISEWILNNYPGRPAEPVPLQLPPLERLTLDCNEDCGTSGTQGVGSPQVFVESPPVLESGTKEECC

## COc1ccc(-c2coc3c(C)c4oc(=O)c(CCC(=O)O)c(C)c4cc23)cc1
  IC50: 41.7 µM (active)
